Where “and” joins values, the source holds several entries; their conditions need not be identical. Equal entries are not always repeated. Toxic doses and inconclusive results are not listed.
Tested on: BDF1 mice, P388 leukemia ip, median survival T/C
Assay: NCI In Vivo Anticancer Drug Screen. Data for tumor model P388 Leukemia (intraperitoneal) in B6D2F1 (BDF1) mice
Conditions: endpoint: median survival time, higher = longer survival
Summary of the method: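 T/C = treated-group survival ÷ vehicle-control survival; tumour transplanted into mice before dosing.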

[1] = dose: 20.0 mg/kg/injection, schedule: Q04DX003 (ip), vehicle: Klucel (hydroxypropylcellulose) (HPC)
[2] = dose: 200.0 mg/kg/injection, schedule: Q04DX003 (ip), vehicle: Klucel (hydroxypropylcellulose) (HPC)
[3] = dose: 100.0 mg/kg/injection, schedule: Q04DX003 (ip), vehicle: Klucel (hydroxypropylcellulose) (HPC)
[4] = dose: 50.0 mg/kg/injection, schedule: Q04DX003 (ip), vehicle: saline with Tween-80
[5] = dose: 25.0 mg/kg/injection, schedule: Q01DX009 (ip), vehicle: saline with Tween-80
[6] = dose: 50.0 mg/kg/injection, schedule: Q01DX009 (ip), vehicle: saline with Tween-80
[7] = dose: 100.0 mg/kg/injection, schedule: Q04DX003 (ip), vehicle: saline with Tween-80
[8] = dose: 200.0 mg/kg/injection, schedule: Q04DX003 (ip), vehicle: saline with Tween-80
[9] = dose: 100.0 mg/kg/injection, schedule: Q01DX009 (ip), vehicle: saline with Tween-80
[10] = dose: 400.0 mg/kg/injection, schedule: Q04DX003 (ip), vehicle: saline with Tween-80

SMILES: Cc1c[n+]2c3ccccc3c3ccccc3c2s1
- T/C (dose: 1.5 mg/kg/injection, schedule: Q01DX009 (ip), vehicle: Klucel (hydroxypropylcellulose) (HPC)): 95 % of control
- T/C (dose: 2.5 mg/kg/injection, schedule: Q01DX009 (ip), vehicle: Klucel (hydroxypropylcellulose) (HPC)): 100 % of control
- T/C (dose: 3.0 mg/kg/injection, schedule: Q01DX009 (ip), vehicle: Klucel (hydroxypropylcellulose) (HPC)): 90 % of control
- T/C (dose: 5.0 mg/kg/injection, schedule: Q01DX009 (ip), vehicle: Klucel (hydroxypropylcellulose) (HPC)): 122 % of control
- T/C (dose: 6.0 mg/kg/injection, schedule: Q01DX009 (ip), vehicle: Klucel (hydroxypropylcellulose) (HPC)): 86 % of control
- T/C (dose: 10.0 mg/kg/injection, schedule: Q01DX009 (ip), vehicle: Klucel (hydroxypropylcellulose) (HPC)): 118 % of control
- T/C (dose: 10.0 mg/kg/injection, schedule: Q04DX003 (ip), vehicle: Klucel (hydroxypropylcellulose) (HPC)): 118 % of control
- T/C [1]: 95 % of control
- T/C (dose: 80.0 mg/kg/injection, schedule: Q04DX003 (ip), vehicle: Klucel (hydroxypropylcellulose) (HPC)): 90 % of control
- T/C [2]: 90 % of control

SMILES: CC(C)(CBr)C(=O)N1CCN(C(=O)C(C)(C)CBr)CC1
- T/C [1]: 150 % of control
- T/C (dose: 30.0 mg/kg/injection, schedule: Q04DX003 (ip), vehicle: Klucel (hydroxypropylcellulose) (HPC)): 159 % of control and 163 % of control
- T/C (dose: 44.0 mg/kg/injection, schedule: Q04DX003 (ip), vehicle: Klucel (hydroxypropylcellulose) (HPC)): 163 % of control and 165 % of control
- T/C [3]: 195 % of control and 200 % of control
- T/C (dose: 150.0 mg/kg/injection, schedule: Q04DX003 (ip), vehicle: Klucel (hydroxypropylcellulose) (HPC)): 175 % of control

SMILES: CCC(C)(OC(C)=O)C(=O)OC1C(=O)OC2CC3C(C)=CC(=O)C(O)C3(C)C3C(O)C(O)C4(C)OCC23C14 (centres undefined)
- T/C (dose: 0.01 mg/kg/injection, schedule: Q01DX009 (ip), vehicle: saline + alcohol): 104 % of control
- T/C (dose: 0.06 mg/kg/injection, schedule: Q01DX009 (ip), vehicle: saline + alcohol): 180 % of control
- T/C (dose: 0.1 mg/kg/injection, schedule: Q01DX009 (ip), vehicle: saline + alcohol): 161 % of control
- T/C (dose: 0.12 mg/kg/injection, schedule: Q01DX009 (ip), vehicle: saline + alcohol): 109 % of control
- T/C (dose: 0.38 mg/kg/injection, schedule: Q01DX009 (ip), vehicle: saline + alcohol): 168 % of control
- T/C (dose: 0.75 mg/kg/injection, schedule: Q01DX009 (ip), vehicle: saline + alcohol): 161 % of control
- T/C (dose: 2.0 mg/kg/injection, schedule: Q01DX009 (ip), vehicle: saline + alcohol): 173 % of control
- T/C (dose: 3.0 mg/kg/injection, schedule: Q01DX009 (ip), vehicle: saline + alcohol): 171 % of control

SMILES: C=CS(=O)(=O)Cc1ccccc1
- T/C (dose: 25.0 mg/kg/injection, schedule: Q04DX003 (ip), vehicle: saline with Tween-80): 104 % of control
- T/C [4]: 93 % of control

SMILES: Clc1nc2nc(Cl)n(Cl)c2nc1Cl
- T/C (dose: 12.5 mg/kg/injection, schedule: Q01DX006 (ip), vehicle: saline with Tween-80): 100 % of control
- T/C (dose: 25.0 mg/kg/injection, schedule: Q01DX006 (ip), vehicle: saline with Tween-80): 91 % of control
- T/C [5]: 86 % of control
- T/C (dose: 25.0 mg/kg/injection, schedule: Q01DX009 (ip), vehicle: water): 109 % of control
- T/C (dose: 50.0 mg/kg/injection, schedule: Q01DX006 (ip), vehicle: saline with Tween-80): 109 % of control
- T/C [6]: 86 % of control
- T/C [4]: 105 % of control
- T/C (dose: 100.0 mg/kg/injection, schedule: Q01DX009 (ip), vehicle: water): 111 % of control
- T/C [7]: 105 % of control
- T/C (dose: 200.0 mg/kg/injection, schedule: Q01DX009 (ip), vehicle: water): 116 % of control
- T/C [8]: 112 % of control

SMILES: O=C(O)C1OC(n2cc([N+](=O)[O-])c(=O)[nH]c2=O)C(O)C1O (centres undefined)
- T/C [5]: 95 % of control
- T/C [6]: 96 % of control
- T/C [9]: 93 % of control

SMILES: C/C=C/C=C/NC(=O)Oc1ccccc1
- T/C [7]: 91 % of control
- T/C [8]: 94 % of control
- T/C [10]: 116 % of control

SMILES: O=S(=O)(OCCF)c1cc(Cl)c(Cl)cc1Cl
- T/C (dose: 50.0 mg/kg/injection, schedule: Q01DX005 (ip), vehicle: Klucel (hydroxypropylcellulose) (HPC)): 113 % of control

SMILES: OC(c1ccc(Cl)cc1)C1CCNCC1 (centres undefined)
- T/C (dose: 50.0 mg/kg/injection, schedule: Q01DX009 (ip), vehicle: saline): 90 % of control
- T/C (dose: 100.0 mg/kg/injection, schedule: Q01DX009 (ip), vehicle: saline): 102 % of control

SMILES: CCN1C[C@]2(COC)[C@H](O)C[C@H](OC)[C@]34C1[C@H]([C@H](OC)[C@H]23)[C@]1(OC(C)=O)[C@H]2[C@@H](OC(=O)c3ccccc3)[C@](O)(C[C@H]24)[C@@H](OC)[C@@H]1O
- T/C (dose: 0.13 mg/kg/injection, schedule: Q01DX009 (ip), vehicle: Klucel (hydroxypropylcellulose) (HPC)): 93 % of control
- T/C (dose: 0.25 mg/kg/injection, schedule: Q01DX009 (ip), vehicle: Klucel (hydroxypropylcellulose) (HPC)): 91 % of control

SMILES: CC1(c2ccc(Cl)s2)NC(=O)NC1=O (centres undefined)
- T/C (dose: 300.0 mg/kg/injection, schedule: Q04DX003 (ip), vehicle: saline with Tween-80): 100 % of control
- T/C [10]: 98 % of control
- T/C (dose: 600.0 mg/kg/injection, schedule: Q04DX003 (ip), vehicle: saline with Tween-80): 86 % of control

SMILES: O=C(O)CC1SC(=S)N(c2ccccc2)C1=O (centres undefined)
- T/C [6]: 101 % of control
- T/C [9]: 105 % of control

SMILES: CC(=O)OC1CC2CCC1(C)C2(C)C (centres undefined)
- T/C [4]: 109 % of control
- T/C [7]: 109 % of control
- T/C [8]: 118 % of control

SMILES: COc1cccc2c1cc([N+](=O)[O-])c1c(C(=O)O)cc3c(c12)OCO3
- T/C (dose: 1.25 mg/kg/injection, schedule: Q01DX010 (ip), vehicle: water): 100 % of control
- T/C (dose: 2.5 mg/kg/injection, schedule: Q01DX010 (ip), vehicle: water): 118 % of control
- T/C (dose: 5.0 mg/kg/injection, schedule: Q01DX010 (ip), vehicle: other): 86 % of control

SMILES: CC(C)C(O)(C(=O)NN)C(=O)NN
- T/C [9]: 100 % of control
- T/C (dose: 200.0 mg/kg/injection, schedule: Q01DX009 (ip), vehicle: saline with Tween-80): 109 % of control
- T/C (dose: 400.0 mg/kg/injection, schedule: Q01DX009 (ip), vehicle: saline with Tween-80): 100 % of control

SMILES: CC(C)CNC(=O)C12CC3CC(CC(C3)C1)C2
- T/C (dose: 12.5 mg/kg/injection, schedule: Q01DX009 (ip), vehicle: saline with Tween-80): 104 % of control
- T/C [5]: 107 % of control
- T/C [6]: 104 % of control
- T/C [9]: 101 % of control

SMILES: COc1ccc(C(O)C2CCCN(C)S2(=O)=O)cc1 (centres undefined)
- T/C (dose: 100.0 mg/kg/injection, schedule: Q04DX002 (ip), vehicle: saline with Tween-80): 117 % of control
- T/C (dose: 200.0 mg/kg/injection, schedule: Q04DX002 (ip), vehicle: saline with Tween-80): 112 % of control
- T/C (dose: 400.0 mg/kg/injection, schedule: Q04DX002 (ip), vehicle: saline with Tween-80): 111 % of control

SMILES: CCSc1nc(C=O)c(Cc2ccc(Br)cc2)c(=O)[nH]1
- T/C [7]: 109 % of control
- T/C [8]: 122 % of control
- T/C [10]: 150 % of control

SMILES: O=C(COc1ccc([N+](=O)[O-])cc1)Nc1cccnc1
- T/C [7]: 100 % of control
- T/C [10]: 100 % of control

SMILES: CC(=O)[O][Hg][c]1cc(-c2ccc(N=Nc3c(S(=O)(=O)O)cc4cccc(N)c4c3O)cc2)ccc1N=Nc1c(S(=O)(=O)O)cc2cccc(N)c2c1O
- T/C (dose: 1.5 mg/kg/injection, schedule: Q01DX009 (ip), vehicle: saline with Tween-80): 100 % of control
- T/C (dose: 3.0 mg/kg/injection, schedule: Q01DX009 (ip), vehicle: saline with Tween-80): 100 % of control
- T/C (dose: 6.0 mg/kg/injection, schedule: Q01DX009 (ip), vehicle: saline with Tween-80): 95 % of control

SMILES: N#C/C1=C(\N)CCCOCCCOCCCOCCCOCCCOCC1
- T/C (dose: 100.0 mg/kg/injection, schedule: Q04DX003 (ip), vehicle: saline): 97 % of control
- T/C (dose: 200.0 mg/kg/injection, schedule: Q04DX003 (ip), vehicle: saline): 92 % of control

SMILES: CC1=NNC(=O)/C1=C\c1ccccc1
- T/C [5]: 103 % of control
- T/C [6]: 99 % of control
- T/C [9]: 108 % of control

SMILES: Cc1cc(N(CCCl)CCCl)ccc1C=Nc1cccnc1
- T/C (dose: 50.0 mg/kg/injection, schedule: Q01DX009 (ip), vehicle: Klucel (hydroxypropylcellulose) (HPC)): 100 % of control and 113 % of control
- T/C (dose: 50.0 mg/kg/injection, schedule: Q04DX003 (ip), vehicle: Klucel (hydroxypropylcellulose) (HPC)): 100 % of control
- T/C (dose: 100.0 mg/kg/injection, schedule: Q01DX009 (ip), vehicle: Klucel (hydroxypropylcellulose) (HPC)): 152 % of control
- T/C [3]: 95 % of control
- T/C (dose: 200.0 mg/kg/injection, schedule: Q01DX009 (ip), vehicle: Klucel (hydroxypropylcellulose) (HPC)): 150 % of control and 156 % of control
- T/C [2]: 120 % of control
- T/C (dose: 400.0 mg/kg/injection, schedule: Q01DX009 (ip), vehicle: Klucel (hydroxypropylcellulose) (HPC)): 169 % of control and 190 % of control
- T/C (dose: 400.0 mg/kg/injection, schedule: Q04DX003 (ip), vehicle: Klucel (hydroxypropylcellulose) (HPC)): 120 % of control
